Consider eleven compounds from patent publication US7875619B2, “Hetero substituted sodium channel blockers” (Parion Sciences, Inc., priority 2004, dated 2011).

This experiment addresses T1, sodium channel (ENaC), canine bronchial epithelia (Canis lupus familiaris, UniProt A0A8I3MKE6+A0A8I3Q679+Q95165).
T1 construct: endogenous in cells; host or cells: primary canine bronchial epithelial cells cultured at air-liquid interface, mounted in Ussing chambers
T1 sequence (A0A8I3Q679 1-649): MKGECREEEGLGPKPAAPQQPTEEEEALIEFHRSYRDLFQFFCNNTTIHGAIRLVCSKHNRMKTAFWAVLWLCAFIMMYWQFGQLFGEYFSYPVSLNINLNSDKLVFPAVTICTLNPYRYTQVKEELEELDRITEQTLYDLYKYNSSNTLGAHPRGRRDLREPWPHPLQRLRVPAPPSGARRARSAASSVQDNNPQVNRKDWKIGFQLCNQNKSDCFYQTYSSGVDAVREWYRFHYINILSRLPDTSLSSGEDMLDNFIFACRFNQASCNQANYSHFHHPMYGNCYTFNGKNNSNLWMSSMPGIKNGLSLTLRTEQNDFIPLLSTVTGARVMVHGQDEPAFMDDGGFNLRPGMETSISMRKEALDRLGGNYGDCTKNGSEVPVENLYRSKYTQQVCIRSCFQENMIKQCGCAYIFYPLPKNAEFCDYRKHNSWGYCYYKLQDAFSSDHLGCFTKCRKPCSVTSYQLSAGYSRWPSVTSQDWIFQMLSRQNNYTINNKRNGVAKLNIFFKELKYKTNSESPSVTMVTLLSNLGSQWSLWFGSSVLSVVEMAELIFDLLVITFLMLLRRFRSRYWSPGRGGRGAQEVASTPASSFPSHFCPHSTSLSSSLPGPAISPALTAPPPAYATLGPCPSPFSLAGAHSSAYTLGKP
T1 sequence (Q95165 1-641): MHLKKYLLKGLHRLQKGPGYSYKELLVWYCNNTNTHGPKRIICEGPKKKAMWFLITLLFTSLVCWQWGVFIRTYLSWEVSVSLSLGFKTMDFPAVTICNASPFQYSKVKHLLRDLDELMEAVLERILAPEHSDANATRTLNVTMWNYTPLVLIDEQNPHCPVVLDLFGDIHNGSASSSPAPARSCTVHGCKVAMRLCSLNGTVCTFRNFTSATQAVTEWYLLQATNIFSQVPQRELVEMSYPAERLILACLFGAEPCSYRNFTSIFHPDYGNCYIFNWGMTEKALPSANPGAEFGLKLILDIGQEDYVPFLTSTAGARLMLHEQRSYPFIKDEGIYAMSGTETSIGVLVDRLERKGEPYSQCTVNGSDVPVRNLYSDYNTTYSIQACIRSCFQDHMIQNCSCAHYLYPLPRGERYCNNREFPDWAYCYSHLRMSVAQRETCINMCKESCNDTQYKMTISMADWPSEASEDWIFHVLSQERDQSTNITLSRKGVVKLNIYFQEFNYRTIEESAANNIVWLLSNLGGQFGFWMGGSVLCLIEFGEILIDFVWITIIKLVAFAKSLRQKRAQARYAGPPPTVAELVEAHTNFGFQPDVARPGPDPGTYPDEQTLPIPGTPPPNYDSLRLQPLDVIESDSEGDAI
T1 sequence (A0A8I3MKE6 1-646): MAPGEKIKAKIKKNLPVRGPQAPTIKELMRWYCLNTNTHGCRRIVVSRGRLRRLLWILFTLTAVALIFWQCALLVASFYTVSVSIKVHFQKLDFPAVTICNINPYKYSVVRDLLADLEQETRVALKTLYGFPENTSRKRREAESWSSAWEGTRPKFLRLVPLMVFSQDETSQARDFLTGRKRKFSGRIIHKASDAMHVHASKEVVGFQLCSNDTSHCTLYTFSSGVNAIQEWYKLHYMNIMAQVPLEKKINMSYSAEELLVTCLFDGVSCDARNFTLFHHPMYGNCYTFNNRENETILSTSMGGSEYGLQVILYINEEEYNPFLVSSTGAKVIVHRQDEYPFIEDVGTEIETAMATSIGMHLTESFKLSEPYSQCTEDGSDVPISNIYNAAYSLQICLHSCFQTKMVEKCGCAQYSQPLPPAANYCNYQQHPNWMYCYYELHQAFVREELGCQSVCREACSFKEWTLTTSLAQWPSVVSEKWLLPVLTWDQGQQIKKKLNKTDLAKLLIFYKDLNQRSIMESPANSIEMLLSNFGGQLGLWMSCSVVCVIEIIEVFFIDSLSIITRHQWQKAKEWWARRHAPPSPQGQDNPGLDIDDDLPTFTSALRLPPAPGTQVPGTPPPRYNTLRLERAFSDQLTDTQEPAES
Kind of experiment: In vitro measure of sodium channel blocking activity: inhibition of short circuit current (ISC) in airway epithelial monolayers in Ussing chambers. The class given is cell-based. To be noted: mean of N runs; for Fold Amiloride** (PSA 4022 = 100) Mean: relative potency for PSA 4022 = 100 using EC50 from PSA 4022 in same run. On the procedure: One assay used to assess mechanism of action and/or potency of the compounds of the present invention involves the determination of lumenal drug inhibition of airway epithelial sodium currents measured under short circuit current (ISC) using airway epithelial monolayers mounted in Ussing chambers. Cells obtained from freshly excised human, dog, sheep or rodent airways are seeded onto porous 0.4 micron Snapwell™ Inserts (CoStar), cultured at air-liquid interface (ALI) conditions in hormonally defined media, and assayed for sodium transport activity (ISC) while bathed in Krebs Bicarbonate Ringer (KBR) in Using chambers. All test drug additions are to the lumenal bath with half-log dose addition protocols (from 1×10^−11 M to 3×10^−5M), and the cumulative change in ISC (inhibition) recorded. All drugs are prepared in dimethyl sulfoxide as stock solutions at a concentration of 1×10^−2 M and stored at −20° C. […] After the maximal concentration (5×10^−5 M) is administered, the lumenal bath is exchanged three times with fresh drug-free KBR solution, and the resultant ISC measured after each wash for approximately 5 minutes in duration. Reversibility is defined as the percent return to the baseline value for sodium current after the third wash. All data from the voltage clamps are collected via a computer interface and analyzed off-line.
Dose-effect relationships for all compounds are considered and analyzed by the Prism 3.0 program.
PSA 4022 was also tested in each assay as a positive control.

Structures are written as SMILES. Counter-ions that a name gives are not always drawn.

In general, EC50 refers to the concentration giving half of the maximal effect. Turning to `C[N+](C)(C)CCOc1ccc(CCCCNC(=N)NC(=O)c2nc(Cl)c(N)nc2N)cc1.Cl.[Cl-]` [PSA 11223, N-(3,5-diamino-6-chloropyrazine-2-carbonyl)-N′-{4-[4-(2-chlorotrimethylammonium)ethoxyphenyl]butyl}guanidine hydrochloride], the EC50 is 14.7 nM and the “Fold Amiloride** (PSA 4022 = 100) Mean” value is reported as 79.6.
The like results for `N=C(NCCCCc1ccc(NCCN(C[C@H](O)[C@H](O)CO)C[C@H](O)[C@H](O)CO)cc1)NC(=O)c1nc(Cl)c(N)nc1N` [PSA 17218, N-[4-(4-{2-[bis-((2S,3R)-2,3,4-trihydroxybutyl)amino]ethylamino}phenyl)butyl]-N′-(3,5-diamino-6-chloropyrazine-2-carbonyl)guanidine trihydrochloride] were, in that order, 32.4 nM and 24.7.
For `N=C(NCCCCc1ccc(SCCC(N)=O)cc1)NC(=O)c1nc(Cl)c(N)nc1N` [PSA 19605, 3-(4-{4-[N′-(3,5-diamino-6-chloropyrazine-2-carbonyl)guanidino]butyl}phenylthio)propionamide], in that order: 4.7 nM and 145.
With `N=C(NCCCCc1ccc(NCCCC(N)=O)cc1)NC(=O)c1nc(Cl)c(N)nc1N` [PSA 18150, 4-(4-(4-[N′-(3,5-diamino-6-chloropyrazine-2-carbonyl)guanidino]-butyl}phenylamino)butyramide dihydrochloride], the EC50 amounted to 23.8 nM and the “Fold Amiloride** (PSA 4022 = 100) Mean” value amounted to 44.4.
The like results for `CS(=O)(=O)N(c1ccc(CCCCNC(=N)NC(=O)c2nc(Cl)c(N)nc2N)cc1)S(C)(=O)=O` [PSA 10316, N-(3,5-Diamino-6-chloropyrazine-2-carbonyl)-N′-[4-(4-bis(methanesulfonyl)aminophenyl)butyl]guanidine] were, in that order, 9.56 nM and 132.
In the case of `N=C(NCCCCc1ccc(C(=O)NCCN)cc1)NC(=O)c1nc(Cl)c(N)nc1N` [PSA 11698, 4-{4-[N-(3,5-diamino-6-chloropyrazine-2-carbonyl)guanidino]butyl}-N-(2-aminoethyl)benzamide hydrochloride], the EC50 turned out to be 5.82 nM and the “Fold Amiloride** (PSA 4022 = 100) Mean” value came to 136.
For `N=C(NCCCCc1ccc(OC[C@H](N)C(=O)O)cc1)NC(=O)c1nc(Cl)c(N)nc1N` (stereo in doubt) [PSA 10941, 2-amino-3-(4-{4-[N′-(3,5-diamino-6-chloropyrazine-2-carbonyl)-guanidino]butyl}phenoxy)propionic acid], in that order: 32.1 nM and 30.0.
The like results for `N=C(NCCCCc1ccc(NCCCC(=O)O)cc1)NC(=O)c1nc(Cl)c(N)nc1N` [PSA 18345, 4-(4-{4-[N′-(3,5-diamino-6-chloropyrazine-2-carbonyl)guanidino]-butyl}phenylamino)butyric acid] were, in that order, 69 nM and 12 .4.
Regarding `N=C(NCCCCc1ccc(NC(=O)CCN)cc1)NC(=O)c1nc(Cl)c(N)nc1N` [PSA 14568, dihydrochloride], the midpoint of the response, the EC50, lay at 3.92 nM and the “Fold Amiloride** (PSA 4022 = 100) Mean” value turned out to be 131.
As for `COC(=O)[C@@H](N)COc1ccc(CCCCNC(=N)NC(=O)c2nc(Cl)c(N)nc2N)cc1` [PSA 11041, 2-amino-3-(4-{4-[N′-(3,5-diamino-6-chloropyrazine-2-carbonyl)-guanidino]butyl}phenoxy)propionic acid methyl ester], the EC50 came out at 32 nM and the “Fold Amiloride** (PSA 4022 = 100) Mean” value was 38.6.
The like results for `N=C(NCCCCc1ccc(N(CCN(C[C@H](O)CO)C[C@H](O)CO)C[C@H](O)CO)cc1)NC(=O)c1nc(Cl)c(N)nc1N` [PSA 16311, N-(4{4-[{2-[N,N-bis-((2S)-2,3-dihydroxypropyl)amino]ethyl}-N-((2S)-2,3-dihydroxypropyl)amino]phenyl}butyl)-N′-(3,5-diamino-6-chloropyrazine-2-carbonyl)guanidine] were, in that order, 33.2 nM and 25.6.
